The values below come from patent US20060014790A1, “Methods of treatment of amyloidosis using spirocyclohexane aspartyl-protease inhibitors” (priority 2004, published 2006).

Assay [1] concerns the target catE / beta-secretase (BACE). Briefly: CatE/BACE selectivity (ratio of IC50 values). The note with it: each value is an average of four experimental runs; multiple values = more than one experiment. In kind it is biochemical. Here is the method:
(§1) Selectivity was calculated as a ratio of inhibition (IC50) values in which the inhibition of beta-secretase was compared to the inhibition of other aspartyl proteases.
Selectivity is reported as the ratio of IC50(catE):IC50(BACE).
(§2) In the following examples, each value is an average of four experimental runs and multiple values for one compound indicate that more than one experiment was conducted.

Assay [2] deals with catD / beta-secretase (BACE). The assay is described as follows: CatD/BACE selectivity (ratio of IC50 values). The assay is classed as biochemical. The note with it: each value is an average of four experimental runs; multiple values = more than one experiment. As to the method:
as §1, §2

With `CC(=O)NC(Cc1cc(F)cc(F)c1)C(O)CNC1(c2cccc(Br)c2)CCC2(CC1)OCCO2` (stereo not shown) [Example 196B-40, N-[3-[8-(3-Bromo-phenyl)-1,4-dioxa-spiro[4.5]dec-8-ylamino]-1-(3,5-difluoro-benzyl)-2-hydroxy-propyl]-acetamide], the “IC50 catE/IC50 BACE” value in assay [1] came to 2.8.
Regarding `CC(=O)NC(Cc1cc(F)cc(F)c1)C(O)CNC1(c2cccc(C(C)(C)C)c2)CCC([S+](C)[O-])CC1` (single isomer, unassigned) [196B-25 Diastereomer A, N-(4-(1-(3-tert-butylphenyl)-4-(methylsulfinyl)cyclohexylamino)-1-(3,5-difluorophenyl)-3-hydroxybutan-2yl)acetamide], in assay [1], the “IC50 catE/IC50 BACE” value was determined as 1.1.
Same read-out and setting: to `CC(=O)NC(Cc1cc(F)cc(F)c1)C(O)CNC1(c2cccc(C(C)(C)C)c2)CCC(O)(CO)CC1` (single isomer, unassigned) [196B-28 Diastereomer A, N-[3-[1-(3-tert-Butyl-phenyl)-4-hydroxy-4-hydroxymethyl-cyclohexylamino]-1-(3,5-difluoro-benzyl)-2-hydroxy-propyl]-acetamide] belongs above 7.4; to `CNC1CCC(NCC(O)C(Cc2cc(F)cc(F)c2)NC(C)=O)(c2cccc(C(C)(C)C)c2)CC1` (single isomer, unassigned) [196B-16 Diastereomer A, N-(4-(1-(3-tert-butylphenyl)-4-(methylamino)cyclohexylamino)-1-(3,5-difluorophenyl)-3-hydroxybutan-2-yl)acetamide], above 4.7.
Consider `CNC1CCC(NCC(O)C(Cc2cc(F)cc(F)c2)NC(C)=O)(c2cccc(C(C)(C)C)c2)CC1` (single isomer, unassigned) [196A-26 Diastereomer A, N-(4-(1-(3-tert-butylphenyl)-4-(methylamino)cyclohexylamino)-1-(3,5-difluorophenyl)-3-hydroxybutan-2-yl)acetamide], for which, in assay [2], the “IC50 catD/IC50 BACE” value is reported as above 4.7.
Regarding `CC(=O)NC(Cc1cc(F)cc(F)c1)C(O)CNC1(c2cccc(-c3ccsc3)c2)CCC(=O)CC1` (stereo not shown) [Example 196A-19, N-(1-(3,5-difluorophenyl)-3-hydroxy-4-(4-oxo-1-(3-(thiophen-3-yl)phenyl)cyclohexylamino)butan-2-yl)acetamide], the “IC50 catD/IC50 BACE” value in assay [2] amounted to 4.4.
With `CC(=O)NC(Cc1cc(F)cc(F)c1)C(O)CNC1(c2cccc(C(C)(C)C)c2)CCC(C(F)(F)F)CC1` (single isomer, unassigned) [196A-32 Diastereomer A, N-(4-(1-(3-tert-butylphenyl)-4-(trifluoromethyl)cyclohexylamino)-1-(3,5-difluorophenyl)-3-hydroxybutan-2-yl)acetamide], the “IC50 catD/IC50 BACE” value in assay [2] came to 1.7.
For the molecule `CC(=O)NC(Cc1cc(F)cc(F)c1)C(O)CNC1(c2cccc(C(C)(C)C)c2)CCC(NS(C)(=O)=O)CC1` (single isomer, unassigned) [196A-41 Diastereomer A, N-(4-(1-(3-tert-butylphenyl)-4-(methylsulfonamido)cyclohexylamino)-1-(3,5-difluorophenyl)-3-hydroxybutan-2-yl)acetamide], the “IC50 catD/IC50 BACE” value in assay [2] was 18.1.
For the molecule `CC(=O)NC(Cc1cc(F)cc(F)c1)C(O)CNC1(c2cccc(C(C)(C)C)c2)CCC(O)(CO)CC1` (single isomer, unassigned) [196A-35 Diastereomer A, N-[3-[1-(3-tert-Butyl-phenyl)-4-hydroxy-4-hydroxymethyl-cyclohexylamino]-1-(3,5-difluoro-benzyl)-2-hydroxy-propyl]-acetamide], in assay [2], the “IC50 catD/IC50 BACE” value is reported as above 7.4.
Same read-out and setting: the result for `CC(=O)NC(Cc1cc(F)cc(F)c1)C(O)CNC1(c2cccc(C(C)(C)C)c2)CCC(NC=O)CC1` (single isomer, unassigned) [196A-43 Diastereomer A, N-(4-(1-(3-tert-butylphenyl)-4-formamidocyclohexylamino)-1-(3,5-difluorophenyl)-3-hydroxybutan-2-yl)acetamide] reads 84.5.
